Test results reported in patent US20150315218A1, “SALTS OF PRODRUGS OF PIPERAZINE AND SUBSTITUTED PIPERIDINE ANTIVIRAL AGENTS” (Bristol-Myers Squibb Company, priority 2004, published 2015).
Where two headings read alike, the source gives them in different places.

Test: Single-dose toxicokinetic and tolerability study of prodrugs in dogs
Type: in vivo, dog
Conditions: for half-life: read-out: T½ (converted)
Experimental: A multi-phase study was conducted to evaluate the tolerability of the prodrug, Iab (monolysine salt) at dosages of 24, 90, or 240 mg/kg (free acid, molar equivalent to 19, 71, or 190 mg/kg of parent IVa, respectively) and the toxicokinetics of lab and IVa (4). Iab was administered to two female dogs/group once daily either as an aqueous solution (24 or 90 mg/kg) or dry-filled capsules (24, 90 [once and twice daily] or 240 mg/kg). The endpoints were: clinical signs, body weight, food consumption, and plasma toxicokinetics of lab and IVa. In all cases, a 1-week washout period was used between doses for all phases of the study. […]
On day 1, Icb was administered to one dog/sex/group once daily in dry-filled capsules at the above dosages. A 1-week washout period was used between doses in the study. On day 8, Icb was administered to one dog/sex/group once daily as an aqueous solution at 25 mg/kg or twice daily in dry-filled capsules at 46 or 125 mg/kg BID.

[1] = IVa, Iab 90 mg/kg Solution, Dogs #3201, #3202
[2] = Table 14: 90 mg/kg, Dogs #1201, #1202, 90 mg/kg
[3] = Table 14: 240 mg/kg, Dogs #2201, #2202, 240 mg/kg
[4] = female, dog, plasma, po, 24 mg/kg, IVa, Iab 24 mg/kg Dry-filled capsule, Dogs #4201, #4202
[5] = female, dog, plasma, po, 24 mg/kg, IVa, Iab 24 mg/kg Solution, Dogs #1201, #1202
[6] = female, dog, plasma, po, 90 mg/kg, IVa, Iab 90 mg/kg Solution, Dogs #3201, #3202
[7] = female, dog, plasma, po, 90 mg/kg, Table 14: 90 mg/kg, Dogs #1201, #1202
[8] = female, dog, plasma, po, 240 mg/kg, Table 14: 240 mg/kg, Dogs #2201, #2202

In the case of `COc1ncc(OC)c2c(C(=O)C(=O)N3CCN(C(=O)c4ccccc4)CC3)c[nH]c12` [IVa, N-(benzoyl)-N′-[(4,7-dimethoxy-6-azaindol-3-yl)-oxoacetyl]piperazine], the “T½” value (IVa, Iab 24 mg/kg Solution, Dogs #1201, #1202) is reported as 3.1 h, the concentration at 24 h (IVa, Iab 24 mg/kg Solution, Dogs #1201, #1202, read-out: C24h) is reported as 0.33 µM and the “AUC0-∞” value [1] is reported as 838 µM·h. For the same compound, the “T½” value [1] was 3.9 h, the concentration at 24 h (IVa, Iab 90 mg/kg Solution, Dogs #3201, #3202, read-out: C24h) was 2.2 µM and the “AUC0-∞” value [2] was 960 µM·h. The “T½” value [2] was 2.9 h, the Cmax (Table 14: 240 mg/kg (190 IVa equiv.), Formulation Solution, Dogs #2201, #2202, 240 mg/kg) was 189 µM and the “AUC0-∞” value [3] was 1584 µM·h. For the same compound, the “T½” value [3] was 4.5 h, the Cmax (Table 14: 180 (90 BID) mg/kg (142 IVa equiv.), Dry-filled capsule, Dogs #3201, #3202) was 248 µM and the “AUC0-∞” value (Table 14: 180 (90 BID) mg/kg, Dogs #3201 (AUC from zero to 24 h), #3202) was 2485 µM·h. For the same compound, the concentration at 24 h (Table 14: 180 (90 BID) mg/kg, Dogs #3201, #3202, read-out: C24h) was 50 µM, the Cmax (Table 14: IVa in female dogs, 90 mg/kg (71 IVa equiv.), Formulation Solution, Dogs #1201, #1202, 90 mg/kg) was 152 µM and the “time post-dose at which mean Cmax of parent was achieved” value (dogs, once daily (QD) dosing of prodrug) was 1 to 2 h. For the same compound, the concentration at 24 h (female, dog, plasma, oral, 24 mg/kg, IVa, Iab 24 mg/kg Dry-filled capsule, Dogs #4201, #4202, read-out: C24 h) was 1.4 µM, the concentration at 24 h (female, dog, plasma, oral, 24 mg/kg, IVa, Iab 24 mg/kg Solution, Dogs #1201, #1202, read-out: C24 h) was 0.61 µM and the concentration at 24 h (female, dog, plasma, oral, 90 mg/kg, IVa, Iab 90 mg/kg Solution, Dogs #3201, #3202, read-out: C24 h) was 3.2 µM. The concentration at 24 h (female, dog, plasma, oral, Table 14: 180 (90 BID) mg/kg, Dogs #3201, #3202, read-out: C24 h) was 34 µM, the Cmax (female, dog, plasma, po, 24 mg/kg, IVa in female dogs, Iab 24 mg/kg (19 IVa equiv.), Dry-filled capsule, Dogs #4201, #4202) was 79.7 µM and the Cmax (female, dog, plasma, po, 24 mg/kg, IVa in female dogs, Iab 24 mg/kg (19 IVa equiv.), Solution, Dogs #1201, #1202) was 72.3 µM. For the same compound, the AUC(0-inf) [4] was 486 µM·h, the half-life [4] was 4.2 h and the AUC(0-inf) [5] was 465 µM·h. The half-life [5] was 3.2 h, the Cmax (female, dog, plasma, po, 90 mg/kg, IVa in female dogs, Iab 90 mg/kg (71 IVa equiv.), Solution, Dogs #3201, #3202) was 124 µM and the AUC(0-inf) [6] was 844 µM·h. The half-life [6] was 4.4 h, the AUC(0-inf) [7] was 1740 µM·h and the half-life [7] was 3.6 h. The Cmax (female, dog, plasma, po, 90 mg/kg, Table 14: IVa in female dogs, 90 mg/kg (71 IVa equiv.), Formulation Solution, Dogs #1201, #1202) was 214 µM, the Cmax (female, dog, plasma, po, 240 mg/kg, Table 14: 240 mg/kg (190 IVa equiv.), Formulation Solution, Dogs #2201, #2202) was 172 µM and the AUC(0-inf) [8] was 1190 µM·h. It also gave a half-life [8] of 3.7 h, a Cmax (female, dog, plasma, po, Table 14: 180 (90 BID) mg/kg (142 IVa equiv.), Dry-filled capsule, Dogs #3201, #3202) of 311 µM and an AUC(0-inf) (female, dog, plasma, po, Table 14: 180 (90 BID) mg/kg, Dogs #3201 (AUC from zero to 24 h), #3202) of 3300 µM·h.
